Values quoted from earlier work in patent publication US4384994A, “Renin inhibitory peptides” (Merck & Co., Inc., priority 1981, dated 1983).

Legend:
hog renin = settings: nephrectomized rats, after injection of hog renin; Gross et al. 1971
pepsin = pepsin (Homo sapiens, UniProt P0DJD8); settings: Umezawa et al. 1970
Sequence of pepsin (P0DJD8 63-388): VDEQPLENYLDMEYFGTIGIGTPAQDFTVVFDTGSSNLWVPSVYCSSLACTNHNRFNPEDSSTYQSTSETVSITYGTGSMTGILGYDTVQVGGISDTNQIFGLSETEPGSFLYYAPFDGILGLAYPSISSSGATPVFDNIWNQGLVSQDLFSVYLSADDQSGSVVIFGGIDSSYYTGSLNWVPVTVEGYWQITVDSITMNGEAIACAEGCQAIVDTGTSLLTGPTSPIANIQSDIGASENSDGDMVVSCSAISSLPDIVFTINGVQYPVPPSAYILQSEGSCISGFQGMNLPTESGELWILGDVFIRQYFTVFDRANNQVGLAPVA

inhibition of pepsin (pepsin): inhibitor
Substance: pepstatin
blood pressure in vivo (hog renin): reduce blood pressure
